Several values for one entry are separate records, joined by “and”; a condition that tells them apart may be missing. Identical values can stand only once.

For data set [1], the system named is Rattus norvegicus. The experiment in a line: Inhibition of carrageenan hind paw edema in rats after oral administration of a dose of 5 mg/kg. Format: functional. Background: The carrageenan paw model is a standard test of acute inflammation.
Data set [2] has as its system Rattus norvegicus. The experiment in a line: Antiinflammatory activity was determined against rat carrageenan hind paw edema, after oral administration. It counts as functional.
For data set [3], the species on record is Rattus norvegicus. The experiment in a line: The compound was tested for gastric ulcerogenicity in rats; ca. 57. Format: functional, Stomach.
Data set [4] in a line: Safety index is the ratio of UD50 to ED50 in carrageenan hind paw edema; ca. 25. Format: toxicity. The settings on record: read-out: Safety index.
For data set [5], the species on record is Rattus norvegicus. Description: Analgesic activity was determined by measuring the dose required to inhibit acetic acid induced writhing. It counts as functional. In general terms: In writhing tests, fewer writhes than in controls are read as antinociception.
Data set [6] in a line: The compound was tested for acute toxicity in mice after oral administration. It counts as organism-based. The settings on record: mouse, in vivo.
The species entered for data set [7] is Rattus norvegicus. Description: The compound was tested for gastric ulcerogenicity in rats. It counts as functional, Stomach.
The nature of data set [8]: Safety index is the ratio of UD50 to ED50 in carrageenan hind paw edema. Format: toxicity. The settings on record: read-out: Safety index.
Data set [9] concerns Rattus norvegicus. The experiment in a line: Antiinflammatory activity was determined against rats carrageenan hind paw edema after oral administration. It counts as functional.
Data set [10] relates to Rattus norvegicus. Description: Antiinflammatory activity was determined against rats carrageenan hind paw edema, after oral administration; ca. 40. It counts as functional.
Data set [11] in a line: The compound was tested for acute toxicity in mice after oral administration; ca. 200. Format: organism-based. To be noted: mouse, in vivo.
Data set [12] is filed under the species Rattus norvegicus. Description: The compound was tested for gastric ulcerogenicity in rats; ca. 30. Format: functional, Stomach.
Data set [13] in a line: Safety index is the ratio of UD50 to ED50 in carrageenan hind paw edema; ca. 20. Format: toxicity. The settings on record: read-out: Safety index.
Data set [14] has as its system Rattus norvegicus. Description: Antiinflammatory activity was determined against rat carrageenan hind paw edema after oral administration of a dose of 40 mg/kg.
Data set [15] is filed under the species Rattus norvegicus. Description: The compound was tested for gastric ulcerogenicity in rats; ca. 8. It counts as functional, Stomach.

As a reminder, the inhibition in vivo is the drop in the measured response relative to a control, in per cent. Turning to `CC(C(=O)OCc1ccccc1)c1ccc2c(c1)SCC1CCCCC1C2=O` (centres undefined), the inhibition in vivo at 5 mg/kg in [1] stood at 25.6%.
On the same count and under the same terms, the same measure for `CC(C(N)=O)c1ccc2c(c1)SCC1CCCCC1C2=O` (centres undefined): 30.5%; for `CCCCCCOC(=O)C(C)c1ccc2c(c1)SCC1CCCCC1C2=O` (centres undefined): 28.3%; for `CC(C(=O)OCC(=O)c1ccccc1)c1ccc2c(c1)SCC1CCCCC1C2=O` (centres undefined): 26.6%.
As to `CC(C(=O)N(C)C)c1ccc2c(c1)SCC1CCCCC1C2=O` (centres undefined), in data set [1], the inhibition in vivo at 5 mg/kg is 2.7%.
As for `CCCCCOC(=O)C(C)c1ccc2c(c1)SCC1CCCCC1C2=O` (centres undefined), in data set [1], the inhibition in vivo at 5 mg/kg turned out to be 22.1%.
Still for that read-out and setting: the same measure for `CC(C)OC(=O)C(C)c1ccc2c(c1)SCC1CCCCC1C2=O` (centres undefined): 25.6%.
On to `CC(C(=O)OC1CCCCC1)c1ccc2c(c1)SCC1CCCCC1C2=O` (centres undefined), for which the inhibition in vivo at 5 mg/kg in data set [1] amounted to 15.6%.
Still for that read-out and setting: the same measure for `CCOCCOC(=O)C(C)c1ccc2c(c1)SCC1CCCCC1C2=O` (centres undefined): 34.6%; for `CC(C(=O)OCCOCCO)c1ccc2c(c1)SCC1CCCCC1C2=O` (centres undefined): 28.1%.
In the case of `CC(C)COC(=O)C(C)c1ccc2c(c1)SCC1CCCCC1C2=O` (centres undefined), the inhibition in vivo at 5 mg/kg in [1] stood at 29.3%.
In general, ED50 refers to the dose that gives a 50% effect, or the effect in half of the subjects. On to `CCOC(=O)C(C)c1ccc2c(c1)SCC1CCCCC1C2=O` (centres undefined), for which the ED50 was 2.24 mg/kg in data set [2] (Rattus norvegicus, po, read-out: ED50) and 0.31 mg/kg in data set [5]. In data set [1], the inhibition in vivo at 5 mg/kg amounted to 38.3%. The molecule further displayed a UD50 in data set [3] of 57 mg/kg. The selectivity ratio in data set [4] turned out to be 25.
For the molecule `CC(C(=O)Oc1ccccc1)c1ccc2c(c1)SCC1CCCCC1C2=O` (centres undefined), the inhibition in vivo at 5 mg/kg in data set [1] turned out to be 22%.
The same measure, in the same setting: the same measure for `CC(C(=O)NCc1ccccc1)c1ccc2c(c1)SCC1CCCCC1C2=O` (centres undefined): -5.5%; for `CC(C(=O)N1CCCCC1)c1ccc2c(c1)SCC1CCCCC1C2=O` (centres undefined): 5.3%.
On the same count and under the same terms, the same measure for `CC(C(=O)NCCO)c1ccc2c(c1)SCC1CCCCC1C2=O` (centres undefined): 22.3%; for `CC(C(=O)OCc1cccnc1)c1ccc2c(c1)SCC1CCCCC1C2=O` (centres undefined): 29.9%.
Still for that read-out and setting: the same measure for `CC(C(=O)NO)c1ccc2c(c1)SCC1CCCCC1C2=O` (centres undefined): 29.9%; for `CCCOC(=O)C(C)c1ccc2c(c1)SCC1CCCCC1C2=O` (centres undefined): 25.4%.
With `CC(C(=O)OC/C=C/c1ccccc1)c1ccc2c(c1)SCC1CCCCC1C2=O` (centres undefined), the inhibition in vivo at 5 mg/kg in data set [1] was 20.3%.
Same read-out and setting: the same measure for `CC(C(=O)OCCN1CCOCC1)c1ccc2c(c1)SCC1CCCCC1C2=O` (centres undefined): 22.2%; for `CC(C(=O)OCCc1ccccn1)c1ccc2c(c1)SCC1CCCCC1C2=O` (centres undefined): 25.5%; for `CNC(=O)C(C)c1ccc2c(c1)SCC1CCCCC1C2=O` (centres undefined): 14.6%.
Same read-out and setting: the same measure for `CC(C(=O)N1CCN(C)CC1)c1ccc2c(c1)SCC1CCCCC1C2=O` (centres undefined): 5.3%.
The same measure, in the same setting: the same measure for `CC(C(=O)NCC(=O)O)c1ccc2c(c1)SCC1CCCCC1C2=O` (centres undefined): 29.7%.
Consider `CC(C(=O)OCc1ccccn1)c1ccc2c(c1)SCC1CCCCC1C2=O` (centres undefined), for which the inhibition in vivo at 5 mg/kg in data set [1] was found to be 30.6%.
Same read-out and setting: the same measure for `CC(C(=O)N1CCOCC1)c1ccc2c(c1)SCC1CCCCC1C2=O` (centres undefined): 7.1%.
On the same count and under the same terms, the same measure for `CCCCOC(=O)C(C)c1ccc2c(c1)SCC1CCCCC1C2=O` (centres undefined): 26%.
What is called LD50 is the dose at which mortality reaches 50%. Lower therefore signals greater toxicity. Consider `CC(C(=O)OCCc1ccccc1)c1ccc2c(c1)SCC1CCCCC1C2=O` (centres undefined), for which the 50% lethal dose (LD50) in data set [6] was 644 mg/kg. In addition, the median effective dose (ED50) in data set [2] is 3.53 mg/kg and 1.5 mg/kg. Besides, the inhibition in vivo at 5 mg/kg in data set [1] was 39.1%. In [7], this molecule yielded a UD50 of over 124 mg/kg. Besides, the selectivity ratio in data set [8] was over 35.
Consider `CC(C(=O)OCCCc1ccccc1)c1ccc2c(c1)SCC1CCCCC1C2=O` (centres undefined), for which the inhibition in vivo at 5 mg/kg in data set [1] is 26%.
Still for that read-out and setting: the same measure for `CCOC(=O)COC(=O)C(C)c1ccc2c(c1)SCC1CCCCC1C2=O` (centres undefined): 20.2%; for `COC(=O)C(C)c1ccc2c(c1)SCC1CCCCC1C2=O` (centres undefined): 21.6%; for `C=CCOC(=O)C(C)c1ccc2c(c1)SCC1CCCCC1C2=O` (centres undefined): 33.5%.
Take `O=C(O)Cc1ccc2c(c1)C(=O)[C@H]1CCCC[C@@H]1CO2` (relative stereo): the ED50 in data set [9] is over 40 mg/kg.
For `O=C(O)Cc1ccc2c(c1)OC[C@H]1CCCC[C@H]1C2=O` (relative stereo), the ED50 in data set [9] was over 40 mg/kg.
`O=C(O)Cc1ccc2c(c1)C(=O)[C@@H]1CCCC[C@@H]1CS2` (relative stereo) registered a 50% effective dose (ED50) in data set [9] of over 40 mg/kg.
The same measure, in the same setting: the same measure for `O=C(O)Cc1ccc2c(c1)SC[C@H]1CCCC[C@@H]1C2=O` (relative stereo): 3.24 mg/kg; for `O=C(O)Cc1ccc2c(c1)C(=O)[C@@H]1CCCC[C@@H]1CO2` (relative stereo): over 40 mg/kg; for `O=C(O)Cc1ccc2c(c1)C(=O)[C@H]1CCCC[C@@H]1CS2` (relative stereo): over 40 mg/kg.
In [9], `O=C(O)Cc1ccc2c(c1)SC[C@H]1CCCC[C@H]1C2=O` (relative stereo) displayed an ED50 of over 40 mg/kg.
Molecule `CC(C(=O)O)c1ccc2c(c1)C(=O)[C@H]1CCCC[C@@H]1CS2` (relative stereo) showed an ED50 in data set [10] of 40 mg/kg.
In the case of `O=C(O)Cc1ccc2c(c1)OC[C@H]1CCCC[C@@H]1C2=O` (relative stereo), the ED50 in data set [9] turned out to be 22.1 mg/kg.
Still for that read-out and setting: the same measure for `CC(C(=O)O)c1ccc2c(c1)OC[C@H]1CCCC[C@@H]1C2=O` (relative stereo): 1.52 mg/kg; for `CC(C(=O)O)c1ccc2c(c1)OC[C@H]1CCCC[C@H]1C2=O` (relative stereo): over 40 mg/kg.
Still for that read-out and setting: the same measure for `CC(C(=O)O)c1ccc2c(c1)C(=O)[C@@H]1CCCC[C@@H]1CS2` (relative stereo): over 40 mg/kg; for `CC(C(=O)O)c1ccc2c(c1)C(=O)[C@@H]1CCCC[C@@H]1CO2` (relative stereo): over 40 mg/kg.
As to `CC(C(=O)O)c1ccc2c(c1)SC[C@H]1CCCC[C@@H]1C2=O` (relative stereo), the LD50 in [11] came to 200 mg/kg. Moreover, the values for the ED50 in [9] and in data set [5] were 1.53 mg/kg and 0.39 mg/kg, respectively. In data set [12], this molecule yielded a UD50 of 30 mg/kg. Also, the selectivity ratio in data set [13] amounted to 20.
In data set [9], `CC(C(=O)O)c1ccc2c(c1)C(=O)[C@H]1CCCC[C@@H]1CO2` (relative stereo) yielded an ED50 of over 40 mg/kg.
Still for that read-out and setting: the same measure for `CC(C(=O)O)c1ccc2c(c1)SC[C@H]1CCCC[C@H]1C2=O` (relative stereo): over 40 mg/kg.
Turning to `CC(C(=O)O)c1ccc2c(c1)SC[C@H]1CCCC[C@@H]1C2=O` (relative stereo; form 1), in data set [14], the ED50 was found to be 1.89 mg/kg.
The same measure, in the same setting: the same measure for `CC(C(=O)O)c1ccc2c(c1)SC[C@H]1CCCC[C@@H]1C2=O` (relative stereo; form 2): 37.1 mg/kg.
Take `COc1ccc2c(c1)c(CC(=O)O)c(C)n2C(=O)c1ccc(Cl)cc1` [INDOMETHACIN]: the LD50 in data set [6] stood at 23 mg/kg. Also, the 50% effective dose (ED50) came out at 3.3 mg/kg in data set [9] and 0.44 mg/kg in data set [5]. Further, the inhibition in vivo at 5 mg/kg in [1] came out at 36.3%. In addition, the UD50 in [15] is 8 mg/kg. In addition, in data set [8], the selectivity ratio amounted to 2.4.

These data come from ChEMBL document CHEMBL1125038, “Synthesis and antiinflammatory activity of cis- and trans-6,6a,7,8,9,10,10a,11-octahydro-11-oxodibenzo[b,e]thiepinacetic and -oxepinacetic acids” (J Med Chem, 1990).
